Like-named read-outs stand apart in the source and are kept apart here.
What was measured:
pENSA = pENSA level by immunofluorescence (described method: in vitro kinase analysis with GST-tag-MASTL and His-tag-ENSA); type: cell-based; conditions: for pENSA (%) Immunofluor ecense (1 µM): compound 1 µM
Outline: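 In vitro kinase reaction using recombinant GST-tagged MASTL with His-tagged ENSA as substrate; phosphorylated ENSA (pENSA) serves as read-out of MASTL activity. Cell lines named: MCF7 breast cancer and MCF10A.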

[1] = system: MCF7 breast cancer cell lines; test: Cell viability analysis, WST-8 assay, MCF7; conditions: for Cell viability (%) WST-8, MCF7 (1 µM): compound 1 µM, 72 hours; for IC50: read-out: IC50(nM) Cell viability (MCF7)
Description: (§1) MCF7 breast cancer cell lines and MCF10A normal breast cancer cell lines were treated with serial dilutions of the compounds of the present invention ranging from 1 µM to 15.63 nM for 72 hours. Cell viability was measured by the WST-8 assay (Cyto XTM cell viability assay kit; LPS solution, Daejeon, Korea) according to the manufacturer's instructions.

[2] = system: MCF10A normal breast cancer cell lines; test: Cell viability analysis, WST-8 assay, MCF10A; conditions: compound 1 µM, 72 hours
Description: as §1

[3] = system: MCF10A normal breast cell lines; test: Cell viability analysis, WST-8 assay, MCF10A; conditions: read-out: IC50(nM) Cell viability (MCF10A)
Description: as §1

[4] = biological target: T1, Recombinant GST-TAG-MASTL (Homo sapiens, UniProt Q96GX5); test: HTRF-based kinase assay (HTRF KinEASE assay kit); type: biochemical; conditions: for IC50: HTRF, read-out: IC50(nM) MASTL activity
T1 construct: GST; purchased Thermo Fisher Scientific
T1 sequence (Q96GX5 1-879): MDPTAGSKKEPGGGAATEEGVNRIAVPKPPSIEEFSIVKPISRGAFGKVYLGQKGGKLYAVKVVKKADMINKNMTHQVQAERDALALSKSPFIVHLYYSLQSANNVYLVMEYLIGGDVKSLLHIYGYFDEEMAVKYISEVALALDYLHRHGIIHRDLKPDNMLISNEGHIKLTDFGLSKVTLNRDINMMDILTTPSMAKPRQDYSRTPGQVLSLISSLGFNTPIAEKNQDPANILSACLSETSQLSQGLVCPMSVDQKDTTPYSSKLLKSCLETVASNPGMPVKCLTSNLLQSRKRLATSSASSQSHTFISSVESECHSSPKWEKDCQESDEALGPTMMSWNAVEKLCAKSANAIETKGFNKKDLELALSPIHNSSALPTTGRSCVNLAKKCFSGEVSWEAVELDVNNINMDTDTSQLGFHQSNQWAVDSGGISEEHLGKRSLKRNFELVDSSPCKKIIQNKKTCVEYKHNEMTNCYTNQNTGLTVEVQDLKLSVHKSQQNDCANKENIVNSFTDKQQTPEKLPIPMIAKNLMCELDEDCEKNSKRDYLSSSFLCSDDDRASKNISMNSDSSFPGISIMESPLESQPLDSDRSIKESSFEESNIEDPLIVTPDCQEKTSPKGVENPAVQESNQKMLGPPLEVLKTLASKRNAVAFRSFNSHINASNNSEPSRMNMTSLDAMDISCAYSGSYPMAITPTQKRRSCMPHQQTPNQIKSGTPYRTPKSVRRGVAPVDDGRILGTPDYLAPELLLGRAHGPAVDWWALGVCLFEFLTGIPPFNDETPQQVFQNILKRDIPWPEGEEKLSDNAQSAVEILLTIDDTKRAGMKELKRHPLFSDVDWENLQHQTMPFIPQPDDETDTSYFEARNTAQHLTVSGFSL
Source text: Recombinant GST-TAG-MASTL (Thermo Fisher Scientific, MA, USA) was used for HTRF-based kinase assays. The HTRF KinEASE assay kit (CisBio, MA, USA) was used according to the manufacturer's instructions.

MASTL = biological target: T2, MASTL (Homo sapiens, UniProt Q96GX5); conditions: reported MASTL inhibitors, background art; cited from earlier work
T2 sequence (Q96GX5 1-879): T1 sequence (Q96GX5 1-879)

[5] = Cell viability analysis, WST-8 assay, MCF10A; conditions: human, mcf10a cells
Description: as §1

Row | Compound | pENSA (%) Immunofluor ecense (1 µM) (pENSA) [%] | IC50 (pENSA; unit µM, read-out: IC50 pENSA) [µM] | Cell viability (%) WST-8, MCF7 (1 µM) [1] [%] | IC50 ([1]; MCF7, WST-8, 72 hours) [nM] | Cell viability (%) WST-8, MCF10A (1 µM) [2] [%] | IC50 ([3]; MCF10A, WST-8, 72 hours) [nM] | IC50 [4] [nM] | MASTL activity (%) HTRF (1 µM) ([4]; compound 1 µM) [%] | IC50 (pENSA; read-out: IC50(nM) pENSA) [µM] | IC50 (MASTL) [nM] | viability at 1 µM ([1]; Homo sapiens, MCF7, 72 h, read-out: Cell viability (%) WST-8, MCF7 (1 µM)) [%] | IC50 ([1]; Homo sapiens, MCF7, 72 h) [nM] | viability at 1 µM [5] [%] | IC50 ([3]; Homo sapiens, MCF-10A, 72 h) [nM] | activity at 1 µM ([4]; compound 1 µM, read-out: MASTL activity (%) HTRF (1 µM)) [%]
1 | O=S(=O)(c1cccs1)N1CC2CCC1CN2c1nc(Nc2cc(C3CC3)[nH]n2)c2ccccc2n1 (centres unmarked) [compound 24d, M-(5-cyclopropyl-1G-pyrazol-3-yl)-2-(5-(thiophen-2-ylsulfonyl)-2,5-diazabicyclo[2.2.2]octan-2-yl)quinazolin-4-amine] | 2.6 | 1.9 | 6.4 | 626 | 4.9 | 210 | 597 | 32.9 |  |  |  |  |  |  | 
2 | N#Cc1ccccc1S(=O)(=O)N1CC2CCC1CN2c1nc(Nc2cc(C3CC3)[nH]n2)c2ccccc2n1 (centres unmarked) [compound 24e, 2-((5-(4-((5-cyclopropyl-1G-pyrazol-3-yl)amino)quinazolin-2-yl)-2,5-diazabicyclo[2.2.2]octan-2-yl)sulfonyl)benzonitrile] | 4.1 | 1.9 | 2.2 | 543 | 2.8 | 184 | 213 | 10.8 |  |  |  |  |  |  | 
3 | O=S(=O)(C1CCCCC1)N1CC2CCC1CN2c1nc(Nc2cc(C3CC3)[nH]n2)c2ccccc2n1 (centres unmarked) [compound 24b, 2-(5-(cyclohexylsulfonyl)-2,5-diazabicyclo[2.2.2]octan-2-yl)-M-(5-cyclopropyl-1G-pyrazol-3-yl)quinazolin-4-amine] | 36 |  | 90.7 |  | 26.5 | 684 | 198 | 24.8 | 0.77 |  |  |  |  |  | 
4 | O=C(Nc1nc2ccccc2[nH]1)c1cccc(-n2cccc2)c1 [MKI-1] |  |  |  |  |  |  |  |  |  | 9900 |  |  |  |  | 
5 | N#CCc1ccc(Nc2nc(Nc3cc(C4CC4)[nH]n3)c3ccccc3n2)cc1 [compound 3a, 2-(4-((4-((5-cyclopropyl-1G-pyrazol-3-yl)amino)quinazolin-2-yl)amino)phenyl)acetonitrile] | 5.1 |  |  |  |  |  | 178 |  | 0.1 |  | 0.05 | 207 | 1.6 | 29 | 20.8
6 | Clc1ccc(Nc2cccc(-c3cn[nH]c3)c2)cc1 [GKI-1] |  |  |  |  |  |  |  |  |  | 4900 |  |  |  |  | 
7 | CC(C)S(=O)(=O)N1CC2CCC1CN2c1nc(Nc2cc(C3CC3)[nH]n2)c2ccccc2n1 (centres unmarked) [compound 24a, M (5-cyclopropyl-1G-pyrazol-3-yl)-2-(5-(isopropylsulfonyl)-2,5-diazabicyclo[2.2.2]octan-2-yl)quinazolin-4-amine] | 14 |  | 4.8 | 954 | 15.7 | 420 | 180 | 29.9 | 0.263 |  |  |  |  |  | 
